Assay results: paper PMC12736008, “New Dimethylpyridine-3-Carboxamide Derivatives as MMP-13 Inhibitors with Anticancer Activity” (Molecules, 2025)

How the values were obtained:
Assay type in all cases: binding
[1] = molecular target: T1, human serum albumin (HSA) (Homo sapiens, UniProt P02768); assay: Fluorescence quenching titration of human serum albumin; details: for ΔG^0 / ΔH^0 / ΔS^0: HSA complex formation; for ΔG^0: one value for 297-308 K; for ΔH^0 / ΔS^0: van't Hoff; for KSV·10^4: PBS pH 7.4
T1 construct: purchased Sigma-Aldrich
T1 sequence (P02768 25-609): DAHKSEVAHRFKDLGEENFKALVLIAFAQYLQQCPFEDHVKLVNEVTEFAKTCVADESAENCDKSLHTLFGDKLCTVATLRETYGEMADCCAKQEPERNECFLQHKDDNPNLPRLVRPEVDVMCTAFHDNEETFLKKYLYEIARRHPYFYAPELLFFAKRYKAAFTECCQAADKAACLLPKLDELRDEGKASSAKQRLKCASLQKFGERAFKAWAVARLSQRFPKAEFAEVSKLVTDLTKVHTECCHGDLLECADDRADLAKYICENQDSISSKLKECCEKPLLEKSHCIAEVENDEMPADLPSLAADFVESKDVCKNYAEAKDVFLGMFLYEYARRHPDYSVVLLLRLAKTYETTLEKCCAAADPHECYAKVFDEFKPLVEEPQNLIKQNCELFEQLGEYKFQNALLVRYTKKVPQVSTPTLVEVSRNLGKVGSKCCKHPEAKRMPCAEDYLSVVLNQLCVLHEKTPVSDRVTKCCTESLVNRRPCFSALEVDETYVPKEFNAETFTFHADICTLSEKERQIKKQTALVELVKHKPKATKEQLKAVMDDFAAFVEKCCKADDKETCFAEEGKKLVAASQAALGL
Procedure: In the human albumin, the amino acid residue Trp214 in subdomain IIA is of particular significance in structural studies. Subdomain IIA is responsible for binding many drugs and endogenous compounds [37]. To investigate the interactions between HSA and the tested compounds, fluorescence spectroscopy was conducted. […] The Stern–Volmer constant with inner filter correction was applied, based on changes in absorbance and in the fluorescence intensity of excited Trp214 residues located in the protein binding pocket:(1) F0/Fcorr=1+kqτQ=1+KSV[Q] (2) Fcorr=Fobs10^(Aex+Aem)/2 where F0 is maximum fluorescence intensities protein without a quencher, Fcorr is the corrected florescence intensities, kq is the quenching rate constant of the molecules, τ is the average lifetime of the molecule (for biomolecules τ = 10^−8 s), [Q] is the concentration of quencher, Ksv is the Stern-Volmer constant, Fobs is the steady-state fluorescence intensity at the maximum wavelength with the quencher, Aex and Aem are the absorbance at excitation and emission wavelengths, respectively. The quenching rate constants (kq) are higher than 2 × 10^10 dm^3 mol^−1 s^−1; therefore, the quenching mechanism is static and supports complex formation.
The binding parameters were evaluated by a double logarithm regression curve by Equation (3):(3) logF0−F/F=logKb[…] where F0 is the maximum fluorescence intensity of a protein without a quencher, F is the maximum fluorescence intensity of the protein after a quencher addition, Kb is the binding constant, [Q] is the molar concentration of the quencher, and n is the binding stoichiometry.
The compounds studied can be arranged in accordance with the value of Kb, the strength of their interaction with HSA. In this ranking, 3d is the highest ranked, followed by 3c, 3b, and 3g in descending order of compatibility. Then, using Equations (4), and van’t Hoff function (5), the thermodynamic parameters of complex formation were determined and collected in Table 5, and Figure 10:(4) logKb=−ΔH^0/RT+[…] (5) ΔG^0=ΔH^0−TΔS^0=−RTlnKb where R is the gas constant (8.314 J mol^−1 K^−1), T is temperature, Kb is the binding constant, ΔH^0 is enthalpy, ΔS^0 is entropy, and ΔG^0 is free energy change.
To perform the UV-Vis and fluorometric titration measurements, all compounds were dissolved in dimethyl sulfoxide (DMSO) at a concentration of 1⸱10^−3 mol/dm^3. A 0.01 mol/dm^3 phosphate-buffered saline (PBS) solution with a pH of 7.4 (Sigma-Aldrich Chemie GmbH, St. Louis, MO, USA) was used to prepare a 1 × 10^−6 mol/dm^3 solution of human serum albumin (HSA) (Sigma-Aldrich Chemie GmbH, St. Louis, MO, USA). The fluorescence study was performed on a Cary Eclipse 500 spectrophotometer (Agilent, Santa Clara, CA, USA). The fluorometric spectra were recorded in a quartz cuvette with a 10 mm path length over an emission range of 280–400 nm, with an excitation wavelength of 280 nm and a PMT voltage of 560 V. The UV-Vis spectra were recorded on a Jasco V-750 spectrophotometer (Jasco, Tokyo, Japan) with the following parameters: a wavelength range of 190–400 nm, a data interval of 0.1 nm, a scan speed of 400 nm/min, and automatic baseline correction. Quartz cuvettes with an optical path length of 10 mm were used. […] The titrations of the protein solution with the studied compounds were performed in 0.5 molar increments, from 0.0 to 2.0 followed by 1.0 increments up to a final molar ratio of 11.0.

[2] = molecular target: T2, HSA/Dansyl-L-Phe (Homo sapiens, UniProt P02768); assay: Marker displacement from HSA/Dansyl-L-Phe complex (Sudlow site II); details: room temperature
T2 construct: purchased Sigma-Aldrich
T2 sequence (P02768 25-609): as above
Description: (§1) The human serum albumin (HSA) has two main drug-binding sites, known as Sudlow site I and Sudlow site II, located in subdomains IIA and IIIA of the albumin structure, respectively. […] In addition to these main sites, HSA has the capacity to bind ligands in other regions, including histidine residues, the N-terminus of the molecule, and metal binding sites. However, it is most common for drugs to bind to Sudlow I and Sudlow II. In order to study binding to a specific site in the protein, fluorescent markers, Dansyl-L-Gly and Dansyl-L-Phe, were used. The Dansyl-L-Gly interacts with Sudllow I, while the Dansyl-L-Phe prefers Sudllow II [41, 42]. The tested compounds were added in portions to the solution that contained the HSA/marker complex, and the fluorescence spectrum was recorded (Figure 11 and Figure 12). The percentage of compound exchange in the albumin pocket was calculated using Equation (6):(6) displacement % =F^0 −F /F^0 where F^0 is the maximum fluorescence intensity of HSA/Dansyl-L-Gly complex, and F is the maximum fluorescence intensity after a quencher addition. The calculated data were collected in Table 6. It was observed that only compound 3b displaces from the Dansyl-L-Gly binding site, as indicated by a decrease in fluorescence intensity with increasing concentration of this derivative, but only to approximately 8%. […] The band intensity increases slightly, which may be due to the dilution of the solution. The dilution of the sample leads to an increase in the average distance between molecules. This, in turn, results in a reduction in the number of collisions and reabsorptions, thereby enhancing the efficiency of fluorescence emission. Nevertheless, the binding site for Dansyl-L-Phe was displaced by all of the tested derivatives.
Solutions of Dansyl-L-Phe (Chem-Norm Biotech, Wuhan, China) and Dansyl-L-Gly (Sigma-Aldrich, Tokyo, Japan) were prepared by dissolving them separately in ethanol to a final concentration of 1·10^−3 mol/dm^3. The HSA solution was prepared in the same way as for titration binding measurements. Spectra were recorded at room temperature using a Cary Eclipse 500 spectrophotometer (Agilent, Santa Clara, CA, USA) with an excitation wavelength of 350 nm, and an emission range of 410–670 nm and the PMT voltages were (V) 700 and 650 for Dansyl-L-Gly and Dansyl-L-Phe, respectively. The complexes were prepared by mixing the HSA solution with the dansylated markers, and then adding the solution of the studied compounds from a ratio of 0 to 11.0 molar at the same increments, using the same protocol as in the spectroscopy studies.

[3] = molecular target: T3, HSA/Dansyl-L-Gly (Homo sapiens, UniProt P02768); assay: Marker displacement from HSA/Dansyl-L-Gly complex (Sudlow site I); details: room temperature
T3 construct: purchased Sigma-Aldrich
T3 sequence (P02768 25-609): as above
Description: as §1, with “The dilution of the sample leads to an increase in the average distance between molecules.” left out, “Nevertheless, the binding site for Dansyl-L-Phe was displaced by all of the tested derivatives.” left out
Solutions of Dansyl-L-Phe (Chem-Norm Biotech, Wuhan, China) and Dansyl-L-Gly (Sigma-Aldrich, Tokyo, Japan) were prepared by dissolving them separately in ethanol to a final concentration of 1·10^−3 mol/dm^3. […] Spectra were recorded at room temperature using a Cary Eclipse 500 spectrophotometer (Agilent, Santa Clara, CA, USA) with an excitation wavelength of 350 nm, and an emission range of 410–670 nm and the PMT voltages were (V) 700 and 650 for Dansyl-L-Gly and Dansyl-L-Phe, respectively. […]

SMILES: Cc1cc(C)c(C(=O)NCC(=O)NCc2ccc(Oc3ccccc3)cc2)c(S)n1 [Compound 3b, 4,6-dimethyl-N-{2-[(4-phenoxybenzyl)amino]-2-oxoethyl}-2-sulfanylpyridine-3-carboxamide]
- ΔG^0 [1]: -3.176 kcal/mol
- ΔH^0 [1]: -96.119 kcal/mol
- ΔS^0 [1]: −1282.70 J·mol^−1·K^−1
- kq·10^12 ([1]; T 297 K): 1.21 10^12 dm^3·mol^−1·s^−1
- n (binding stoichiometry) ([1]; T 297 K): 0.89
- KSV·10^4 ([1]; T 297 K): 1.21 10^4 dm^3·mol^−1
- kq·10^12 ([1]; T 303 K): 1.06 10^12 dm^3·mol^−1·s^−1
- n (binding stoichiometry) ([1]; T 303 K): 0.60
- KSV·10^4 ([1]; T 303 K): 1.06 10^4 dm^3·mol^−1
- kq·10^12 ([1]; T 308 K): 0.86 10^12 dm^3·mol^−1·s^−1
- n (binding stoichiometry) ([1]; T 308 K): 0.44
- KSV·10^4 ([1]; T 308 K): 0.86 10^4 dm^3·mol^−1
- Marker Displacement Percentage HSA/Dansyl-L-Gly [2]: 35.2%

SMILES: Cc1cc(C)c(C(=O)NCC(=O)NCc2ccc(Cl)cc2)c(S)n1 [Compound 3c, N-{2-[(4-chlorobenzyl)amino]-2-oxoethyl}-4,6-dimethyl-2-sulfanylpyridine-3-carboxamide]
- ΔG^0 [1]: -4.319 kcal/mol
- ΔH^0 [1]: -45.696 kcal/mol
- ΔS^0 [1]: −571.09 J·mol^−1·K^−1
- kq·10^12 ([1]; T 297 K): 2.69 10^12 dm^3·mol^−1·s^−1
- n (binding stoichiometry) ([1]; T 297 K): 0.84
- KSV·10^4 ([1]; T 297 K): 2.69 10^4 dm^3·mol^−1
- kq·10^12 ([1]; T 303 K): 2.34 10^12 dm^3·mol^−1·s^−1
- n (binding stoichiometry) ([1]; T 303 K): 0.74
- KSV·10^4 ([1]; T 303 K): 2.34 10^4 dm^3·mol^−1
- kq·10^12 ([1]; T 308 K): 2.07 10^12 dm^3·mol^−1·s^−1
- n (binding stoichiometry) ([1]; T 308 K): 0.65
- KSV·10^4 ([1]; T 308 K): 2.07 10^4 dm^3·mol^−1
- Marker Displacement Percentage HSA/Dansyl-L-Gly [3]: no quenching occurs at all
- Marker Displacement Percentage HSA/Dansyl-L-Gly [2]: 18.5%

SMILES: Cc1cc(C)c(C(=O)NCC(=O)NCc2ccccc2)c(S)n1 [Compound 3g, 4,6-dimethyl-N-[2-(benzylamino)-2-oxoethyl]-2-sulfanylpyridine-3-carboxamide]
- ΔG^0 [1]: -2.12 kcal/mol
- ΔH^0 [1]: -44.077 kcal/mol
- ΔS^0 [1]: −579.14 J·mol^−1·K^−1
- kq·10^12 ([1]; T 297 K): 0.87 10^12 dm^3·mol^−1·s^−1
- n (binding stoichiometry) ([1]; T 297 K): 0.60
- KSV·10^4 ([1]; T 297 K): 0.87 10^4 dm^3·mol^−1
- kq·10^12 ([1]; T 303 K): 0.72 10^12 dm^3·mol^−1·s^−1
- n (binding stoichiometry) ([1]; T 303 K): 0.54
- KSV·10^4 ([1]; T 303 K): 0.72 10^4 dm^3·mol^−1
- kq·10^12 ([1]; T 308 K): 0.63 10^12 dm^3·mol^−1·s^−1
- n (binding stoichiometry) ([1]; T 308 K): 0.42
- KSV·10^4 ([1]; T 308 K): 0.63 10^4 dm^3·mol^−1
- Marker Displacement Percentage HSA/Dansyl-L-Gly [3]: no quenching occurs at all
- Marker Displacement Percentage HSA/Dansyl-L-Gly [2]: 11.1%

SMILES: Cc1cc(C)c(C(=O)NCC(=O)NCc2ccccc2Cl)c(S)n1 [Compound 3d, N-{2-[(2-chlorobenzyl)amino]-2-oxoethyl}-4,6-dimethyl-2-sulfanylpyridine-3-carboxamide]
- ΔG^0 [1]: -4.156 kcal/mol
- ΔH^0 [1]: -45.471 kcal/mol
- ΔS^0 [1]: −570.21 J·mol^−1·K^−1
- kq·10^12 ([1]; T 297 K): 2.51 10^12 dm^3·mol^−1·s^−1
- n (binding stoichiometry) ([1]; T 297 K): 0.82
- KSV·10^4 ([1]; T 297 K): 2.51 10^4 dm^3·mol^−1
- kq·10^12 ([1]; T 303 K): 2.13 10^12 dm^3·mol^−1·s^−1
- n (binding stoichiometry) ([1]; T 303 K): 0.73
- KSV·10^4 ([1]; T 303 K): 2.13 10^4 dm^3·mol^−1
- kq·10^12 ([1]; T 308 K): 1.88 10^12 dm^3·mol^−1·s^−1
- n (binding stoichiometry) ([1]; T 308 K): 0.63
- KSV·10^4 ([1]; T 308 K): 1.88 10^4 dm^3·mol^−1
- Marker Displacement Percentage HSA/Dansyl-L-Gly [3]: no quenching occurs at all
- Marker Displacement Percentage HSA/Dansyl-L-Gly [2]: 10.6%
